# Data reported in publication PMC4604124, “In Vitro Characterization of the Pharmacological Properties of the Anti-Cancer Chelator, Bp4eT, and Its Phase I Metabolites” (PLoS ONE, 2015).
# “And” between values parts separate entries of the source, which are not always exact repeats. Equal entries are not always repeated.
# How the values were obtained:
# H9c2 cardiomyoblasts = assay: MTT cytotoxicity assay, H9c2 cells; format: cell-based, rat; conditions: H9c2, 72 h/37°C, MTT; mean ± SD, n ≥ 4; read-out: IC50
# Protocol: (§1) For cytotoxicity experiments, cancer cells were seeded at a density of 5,000 (MCF-7), 10,000 (HL-60) or 2,000 cells/well (HCT116 and A549) in 96-well plates (TPP) for 24 h/37°C prior to the addition of examined agents. The non-cancerous cells, 3T3 and H9c2 cells, were cultured for 24 h/37°C in 96-well plates at a density of 10,000 cells/well, the medium was then changed to serum- and pyruvate-free DMEM (Sigma-Aldrich) and incubated with the cells for another 24 h/37°C. The cytotoxic effects of Bp4eT and its metabolites were studied at different concentrations after a 72 h/37°C incubation. In order to aid the dissolution of the lipophilic ligands, 0.1% dimethyl sulfoxide (v/v) (DMSO; Sigma-Aldrich) was present in the culture medium of all groups. At this concentration, DMSO had no effect on cellular proliferation or viability.
# (§2) The viability of cells were determined using an MTT assay (Sigma-Aldrich) according to previously established methods. The optical density of soluble MTT was measured at λ = 570 nm, subtracting the λ = 690 nm background using a Tecan Infinite 200M plate reader (Tecan Group, Männedorf, Switzerland). The viability or proliferation of experimental groups was expressed as a percentage of the untreated controls (100%).
# (§3) SigmaStat for Windows 3.5 (Systat Software, San Jose, CA, USA) statistical software package was utilized to analyze results. The data are expressed as the mean ± SD of a given number of experiments. Statistical significance was determined using a one-way ANOVA with a Bonferroni post-hoc test or Student’s t-test. The results were considered to be statistically significant when p < 0.05. The IC50 values were calculated using CalcuSyn 2.0 software (Biosoft, Cambridge, UK). Cell cycle analysis was evaluated using MultiCycle AV Software (Phoenix Flow Systems, San Diego, CA, USA).
# [1] = test system: 3T3 mouse embryo fibroblasts; assay: MTT cytotoxicity assay, 3T3 cells; format: cell-based; conditions: Mus musculus, Fibroblast, 72 h, 3T3, 72 h; read-out: IC50
# Protocol: as §1, §2, §3
# [2] = test system: cancer cells (HL-60, MCF-7, HCT116, A549) and non-cancerous cells (H9c2, 3T3); assay: MTT cytotoxicity assay, summary over the cell line panel; format: cell-based; conditions: HL-60, MCF-7, HCT116, A549; 72 h; read-out: IC50, range over cancer cells
# Protocol: as §1, §2, §3
# [3] = test system: labile iron pool of MCF-7 cells; assay: Calcein-AM assay, access to the labile iron pool; format: cell-based, human; conditions: 10 μM, MCF-7, mean of 6 experiments
# Protocol: These experiments were performed according to Glickstein et al. with slight modifications. The MCF-7 cells were seeded in 96-well plates (10,000 cells/well) and allowed to adhere for 24 h/37°C. Cells were loaded with iron using the cellular iron donor, ferric ammonium citrate (530 μg/mL), 24 h prior to the experiment, and then washed. To prevent potential interference, especially with regard to various trace elements, the medium was replaced with ADS buffer (prepared using Millipore water supplemented with 116 mM NaCl, 5.3 mM KCl, 1 mM CaCl2, 1.2 mM MgSO4, 1.13 mM NaH2PO4, 5 mM D-glucose, and 20 mM HEPES, pH 7.4). Cells were then loaded with 2 μM of the cell-permeable calcein green acetoxymethyl ester (calcein-AM; Molecular Probes, Oregon, USA) for 30 min/37°C and washed. Cellular esterases cleave the acetoxymethyl groups to form the cell membrane-impermeable compound, calcein green. The fluorescence of calcein green is quenched upon binding iron. The intracellular fluorescence (λex = 488 nm; λem = 530 nm) of calcein green was then followed as a function of time (10 min after the addition of 10 μM Bp4eT or its metabolites) at 37°C using the Tecan Infinite 200M plate reader. The iron chelation efficacy of the metabolites in cells was expressed as a percentage of the efficacy of the parent chelator, Bp4eT (100%).
# MCF-7 cells = assay: Cellular 59Fe uptake from 59Fe2-transferrin; format: cell-based, human; conditions: 25 μM, 3 h/37°C, MCF-7, 0.75 μM 59Fe2-Tf
# From the text: Human transferrin (Sigma) was labeled with ^56Fe or ^59Fe (PerkinElmer, Massachusetts, USA) to produce ^56Fe2-transferrin or ^59Fe2-transferrin (^59Fe2-Tf), respectively, with a final specific activity of 500 pCi/pmol Fe, as previously described. Unbound ^59Fe was removed by exhaustive vacuum dialysis against a large excess of 0.15 M NaCl buffered to pH 7.4 with 1.4% NaHCO3 by standard methods.
# The ability of the chelators to prevent cellular ^59Fe uptake from ^59Fe2-transferrin was examined using standard techniques. In brief, confluent MCF-7 cells in 6-well plates were incubated with 0.75 μM ^59Fe2-Tf for 3 h/37°C in the presence of Bp4eT or its metabolites (25 μM). The cells were then washed four times with ice-cold PBS and the level of internalized ^59Fe was determined by incubating the cell monolayer for 30 min/4°C with the general protease, Pronase (1 mg/mL; Sigma-Aldrich). The cells were then removed from the monolayer with a plastic spatula on ice and centrifuged for 1 min/12,000 x g/4°C. The supernatant represents membrane-bound, Pronase-sensitive ^59Fe that was released by the protease, while the Pronase-insensitive fraction represents internalized ^59Fe. The amount of internalized ^59Fe was expressed as a percentage of ^59Fe internalized by control (untreated) cells.
# [4] = set-up: method as in PMID 24254882; conditions: E and Z isomers, after Bp4eT; cited from earlier work
# [5] = Ascorbate oxidation assay (redox activity of iron complexes); format: biochemical; conditions: for %Fe 30min: ascorbate oxidation as % of the Fe control (Fe 100%): IBE 0.1, 30 min;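 for %Fe 30min (ascorbate oxidation, Fe 100%), průměr: IBE 3 means excess free chelator over iron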;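 for %Fe 30min (ascorbate oxidation, Fe 100%): IBE 3 means excess free chelator over iron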;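 for %Fe 30min: ascorbate oxidation as % of the Fe control (Fe 100%): IBE 0.1 means iron-binding equivalents with iron in excess over chelator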;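 for Change of absorbance, odečet 0 (time 0 subtracted), čas 10, průměr: IBE 3 means excess free chelator over 10 µM FeCl3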;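 for Change of absorbance, odečet 0 (time 0 subtracted), čas 10: IBE 3 means excess free chelator over 10 µM FeCl3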
# Protocol: The ascorbate oxidation assay was used to assess the redox activity of the iron complexes of the chelators using an established protocol. In brief, 100 μM ascorbic acid was prepared immediately prior to the experiment and incubated either alone or in the presence of 10 μM FeCl3 in a 50-fold molar excess (500 μM) of citrate and the chelators. Chelators were assayed at iron-binding equivalents (IBE) of 0.1 (excess of iron), 1 (fully coordinated iron—chelator complexes) and 3 (excess of free chelator). […] The decrease of absorbance between the two time points was calculated and expressed as a percentage of control without the chelator.
# cancer cells = test system: cancer cells; set-up: method as in PMID 17602603, PMID 23074173, PMID 2758414, PMID 20036563; conditions: cited from earlier work
# [6] = sheet IBE 1, time 10, replicates
# [7] = sheet IBE 1, time 20, replicates
# [8] = sheet IBE 1, time 30, replicates
compound,measurement,setting,value
"CCNC(=O)NN=C(c1ccccc1)c1ccccn1 [Bp4eS, 2-benzoylpyridine 4-ethylsemicarbazone]",IC50,H9c2 cardiomyoblasts,343 µM
same,IC50,[1],> 1000 µM
same,IC50,[2],46 to 536 µM
same,Chelation efficacy: fluorescence of free calcein at t = 600 s as percentage of Bp4eT,[3],≤ 1.0%
same,"Internalized 59Fe uptake, % of the control",MCF-7 cells,comparable to the untreated control
same,Concentration in plasma,[4],< 20 nM
"CC(=O)N(O)CCCCCNC(=O)CCC(=O)N(O)CCCCCNC(=O)CCC(=O)N(O)CCCCCN [DFO, deferoxamine, reference compound]",%Fe 30min: ascorbate oxidation as % of the Fe control (Fe 100%),[5]; mean (průměr),95.6%
same,%Fe 30min: ascorbate oxidation as % of the Fe control (Fe 100%),[5]; single wells,92.32% and 94.84% and 89.62% and 108.6% and 104.8% and 93.48%
same,Change of absorbance after subtraction of time 0 (odečet 0),"[5]; IBE 0.1, time 10, mean (průměr)",-0.0289
same,Change of absorbance after subtraction of time 0 (odečet 0),"[5]; IBE 0.1, time 20, mean (průměr)",-0.06128
same,Change of absorbance after subtraction of time 0 (odečet 0),"[5]; IBE 0.1, time 30, mean (průměr)",-0.09056
same,"Absorbance (ascorbate, λ = 265 nm)","[5]; IBE 0.1, čas 0 (time 0), mean (průměr)",0.8374
same,"Absorbance (ascorbate, λ = 265 nm)","[5]; IBE 0.1, čas 0 (time 0), single wells",0.8482 and 0.8386 and 0.8297 and 0.8393 and 0.8347 and 0.8423
same,"Absorbance (ascorbate, λ = 265 nm)","[5]; IBE 0.1, čas 10 (time 10), mean (průměr)",0.8085
same,"Absorbance (ascorbate, λ = 265 nm)","[5]; IBE 0.1, čas 10 (time 10), single wells",0.8014 and 0.8085 and 0.8061 and 0.8115 and 0.8174 and 0.8155
same,"Absorbance (ascorbate, λ = 265 nm)","[5]; IBE 0.1, čas 20 (time 20), mean (průměr)",0.7761
same,"Absorbance (ascorbate, λ = 265 nm)","[5]; IBE 0.1, čas 20 (time 20), single wells",0.7691 and 0.7765 and 0.7756 and 0.7789 and 0.7837 and 0.7797
same,"Absorbance (ascorbate, λ = 265 nm)","[5]; IBE 0.1, čas 30 (time 30), mean (průměr)",0.7468
same,"Absorbance (ascorbate, λ = 265 nm)","[5]; IBE 0.1, čas 30 (time 30), single wells",0.7397 and 0.7469 and 0.7473 and 0.7447 and 0.754 and 0.7546
same,"Ascorbate oxidation, % of the control",[5]; IBE 1,significant (p < 0.001) decrease
same,"Ascorbate oxidation, % of the control",[5]; IBE 3,significant (p < 0.001) decrease
same,"%Fe 30min (ascorbate oxidation, Fe = 100%), průměr (mean)","[5]; sheet IBE 1, 30min, Fe 100%, mean",34.33%
same,"%Fe 30min (ascorbate oxidation, Fe = 100%), single replicates","[5]; sheet IBE 1, 30min, Fe 100%, replicates",31.7% and 34.66% and 23.38% and 46.3% and 44.12% and 39.04%
same,"raw reading at čas 0 (time 0), průměr (mean)","[5]; sheet IBE 1, time 0, mean of 9 readings",0.8386
same,"raw reading at čas 0 (time 0), single replicates","[5]; sheet IBE 1, time 0, replicates of 2014-03-24 (two runs) and 2014-03-25",0.8558 and 0.8596 and 0.828 and 0.8361 and 0.827 and 0.8501
same,"odečet 0 (reading minus time 0 reading) at čas 10, průměr (mean)","[5]; sheet IBE 1, time 10, mean",-0.01
same,"raw reading at čas 10 (time 10), průměr (mean)","[5]; sheet IBE 1, time 10, mean of 9 readings",0.8286
same,"odečet 0 (reading minus time 0 reading) at čas 10, single replicates",[5]; [6],-0.00635 and -0.01167 and -0.00323 and -0.01849 and -0.01895 and -0.01001
same,"raw reading at čas 10 (time 10), single replicates",[5]; [6],0.8216 and 0.8244 and 0.8238 and 0.8316 and 0.8369 and 0.8496
same,"odečet 0 (reading minus time 0 reading) at čas 20, průměr (mean)","[5]; sheet IBE 1, time 20, mean",-0.0179
same,"raw reading at čas 20 (time 20), průměr (mean)","[5]; sheet IBE 1, time 20, mean of 9 readings",0.8207
same,"odečet 0 (reading minus time 0 reading) at čas 20, single replicates",[5]; [7],-0.01539 and -0.01649 and -0.00893 and -0.03069 and -0.02809 and -0.02068
same,"raw reading at čas 20 (time 20), single replicates",[5]; [7],0.8126 and 0.8196 and 0.8181 and 0.8194 and 0.8278 and 0.8389
same,"odečet 0 (reading minus time 0 reading) at čas 30, průměr (mean)","[5]; sheet IBE 1, time 30, mean",-0.0308
same,"raw reading at čas 30 (time 30), průměr (mean)","[5]; sheet IBE 1, time 30, mean of 9 readings",0.8078
same,"odečet 0 (reading minus time 0 reading) at čas 30, single replicates",[5]; [8],-0.02739 and -0.02994 and -0.0202 and -0.04369 and -0.04163 and -0.03684
same,"raw reading at čas 30 (time 30), single replicates",[5]; [8],0.8006 and 0.8061 and 0.8068 and 0.8064 and 0.8142 and 0.8227
same,"%Fe 30min (ascorbate oxidation, Fe 100%), průměr","[5]; sheet IBE 3, 30min, Fe alone = 100%, mean (průměr) of the 9 replicates",14.03%
same,"%Fe 30min (ascorbate oxidation, Fe 100%)","[5]; sheet IBE 3, 30min, Fe alone = 100%, single replicates",16.83% and 16.2% and 10.25% and 18.5% and 12.77% and 8.453%
same,"Change of absorbance, odečet 0 (time 0 subtracted), čas 10, průměr","[5]; sheet IBE 3, time 10 minus time 0, mean (průměr)",-0.00229
same,"Change of absorbance, odečet 0 (time 0 subtracted), čas 10","[5]; sheet IBE 3, time 10 minus time 0, single replicates",-0.00147 and -0.00159 and -0.00408 and -0.00649 and -0.00197 and 0.00214
same,"Change of absorbance, odečet 0 (time 0 subtracted), čas 20, průměr","[5]; sheet IBE 3, time 20 minus time 0, mean (průměr)",-0.00588
same,"Change of absorbance, odečet 0 (time 0 subtracted), čas 20","[5]; sheet IBE 3, time 20 minus time 0, single replicates",-0.00984 and -0.00475 and -0.00555 and -0.0054 and -0.00607 and -0.00117
same,"Change of absorbance, odečet 0 (time 0 subtracted), čas 30, průměr","[5]; sheet IBE 3, time 30 minus time 0, mean (průměr)",-0.01297
same,"Change of absorbance, odečet 0 (time 0 subtracted), čas 30","[5]; sheet IBE 3, time 30 minus time 0, single replicates",-0.01562 and -0.01504 and -0.00952 and -0.01694 and -0.01169 and -0.00774
same,IC50 values against cancer cells,cancer cells,μM range
O=C(O)c1ccc(-n2nc(-c3ccccc3O)nc2-c2ccccc2O)cc1 [deferasirox],IC50 values against cancer cells,cancer cells,μM range
